Data on 1 substance can be found in patent US10023864B2, “Methods of treating a metabolic syndrome by modulating heat shock protein (HSP) 90-beta” (Berg LLC, priority 2014, dated 2018).

For data set [1], the system named is DIO mice. In words: Insulin level in DIO mice. It is filed as in vivo, mouse. As to the method:
(§1) The mice were divided into four groups: (1) lean (non-diabetic control); (2) diabetic receiving control ASO (NC-ASO); (3) diabetic receiving ASO5; and (4) diabetic receiving ASO6. In various experiments mice were dosed intra-peritoneally with twice per week injection of ASO at […] body weight for 4 or 8 weeks. Skeletal muscles were subjected to quantitative PCR.
Further, the effect of the reduction of Hsp90ab1 protein level on plasma insulin levels was examined.

The subject of another data set is human Hsp90AB1 mRNA. Description: Knockdown of Hsp90AB1 mRNA in HSMM myotubes. The class given is cell-based. Conditions: normalized to cyclophilin, vs NC1ASO. The source says:
The level of human Hsp90AB1 at the mRNA level was similarly observed to be reduced in HSMM myotubes treated with the exemplary mouse antisense oligonucleotide ASO6 (FIG. 20). ASO6 (and ASOs 1-5 and 7-9) is derived from the mouse HSP90AB1 gene. The oligonucleotide NC1ASO was again used as a negative control. The level of HSP90 mRNA was normalized to a control (cyclophilin) mRNA. The human and the mouse Hsp90aB1 gene share 96% homology.

Another data set concerns human Hsp90AB1 protein. In words: Knockdown of Hsp90AB1 protein in HSMM by Western blotting. It is filed as cell-based. Conditions: Western blot, normalized to actin, vs NC1. Here is the method: ASO1-ASO6 were tested for their ability to knock down human Hsp90AB1 levels in HSMM myotubes. The effectiveness of oligonucleotides ASO1 (A1), ASO2 (A2) ASO3 (A3) ASO4 (A4) ASO5 (A5) and ASO6 (A6) in knocking down the expression of HSP90AB1 protein is shown by Western blotting in FIGS. 19A and 19B. The oligonucleotide NC1 was used as a negative control. HSP90Ab1 protein levels were normalized to the levels of actin.
The ASO oligonucleotides ASO5, ASO13 and ASO18 were tested for their ability to reduce expression of human Hsp90AB1 protein in human skeletal muscle myotubes (HSMM) and C2C12 mouse myoblasts by Western blotting. ASO5 was derived from the mouse HSP90ab1 gene, while ASO13 and ASO18 were directed to the human HSP90ab1 gene. The oligonucleotide NC1 was used as a negative control. HSP90AB1protein levels were normalized to the levels of actin.
In general terms: A western blot detects proteins with antibodies after separation by electrophoresis.

Data set [2] concerns skeletal muscles of DIO mice. In words: Skeletal muscle gene expression and PDH-E1α phosphorylation in DIO mice. The class given is in vivo, mouse. The source says:
PDK4 is known to phosphorylate pyruvate dehydrogenase (PDH)-E1α subunit, thereby inhibiting PDH and downregulating mitochondrial glucose oxidation. […] This decrease in phosphorylation is indicative of an increase in active PDH-E1α and a resultant increase in mitochondrial glucose oxidation. Thus, ASO mediated Hsp90ab1 knock-down is effective for enhancing substrate metabolism through suppression of PDK4 expression.
These genes are PFKM (phosphofructokinase, muscle), ALDOA (aldolase A), GYS1 (glycogen synthase 1) ACCA (Acetyl-CoA carboxylase), HSL (Hormone sensitive lipase), SCD1 (Stearoyl-CoA desaturase), ACADL (Acyl-CoA Dehydrogenase), and CPT1b (Carnitine palmitoyltransferase I). Gene expression was examined in the skeletal muscles of the mice.

Data set [3] deals with DIO mice. Description: Intraperitoneal glucose tolerance test (IPGTT) in DIO mice. Conditions: four weeks treatment, vs NC ASO. It is filed as in vivo, mouse. Here is the method:
Glucose tolerance tests (GTT) are performed after 6 h of fasting. Initial fasting blood glucose levels are determined, followed by intraperitoneal (ip) injection of 20% dextrose solution at a dose of 2.0 g/kg body weight (2 g/kg body weight). Blood glucose levels are measured from the tail vein at 15, 30, 60, 90, 120, 150, and 180 minutes after the glucose injection using a commercially available glucose monitor, e.g., an Accu-chek® Advantage glucometer (Roche Diagnostics®, Indianapolis, Ind.). The area under the curve (AUC) during the GTT is calculated using a commercially available software program, e.g., GraphPad Prism software. GTT experiments for different groups are run in parallel. At each time point of the tail vein glucose measurements, ˜40 μL of tail vein blood is collected and plasma is prepared for subsequent insulin level assays using ELISA/RIA for time points at 0, 15, and 30 min after glucose injections.
HSP90AB1 antisense oligonucleotides (ASO) specific to HSP90AB1 were administered to DIO mice. […]
The mice were divided into four groups: (1) lean (non-diabetic control); (2) diabetic receiving control ASO (NC-ASO); (3) diabetic receiving ASO5; and (4) diabetic receiving ASO6. […] Skeletal muscles were subjected to quantitative PCR.
At the end of the treatment period glucose tolerance was measured. […]

The test system of the next data set is muscle of DIO mice. In words: Lipidomic analysis of muscle of DIO mice. The class given is in vivo, mouse. The text has this:
As noted in the above examples, Hsp90ab1 was identified as a critical node in Bayesian metabolic disease network derived by the interrogation of the biology underlying diabetes in a data driven manner. This was achieved by using a proprietary platform integrating pan-omic data, mitochondrial-centric metabolic fingerprint and phenotypic assays capturing metabolic dysregulation reminiscent of obesity/diabetes sequale. Hsp90ab1 is an ATPase targeting multiple clients including vital components of insulin signaling and mitochondrial membrane proteins. However the role of Hsp90ab1 in metabolism remains unknown. […] This was accompanied by decreased muscle PDH E1a phosphorylation, reflecting an increased insulin sensitivity and carbohydrate substrate metabolism. We also observed significant alteration in the lipidomic profile in these DIO mice treated with ASO6. For example ASO6-mediated knockdown of Hsp90ab1 in DIO mice increased 18:2 enriched species of cardiolipin in muscle. […] Taken together, our data provides novel evidence that Hsp90ab1 isoform is a key regulator of skeletal muscle cell metabolism and systemic metabolism, and represents a target for treatment of diabetes.

In the next data set the test system is Hsp90ab1 mRNA. Description: Hsp90ab1 mRNA in gastrocnemius muscles of DIO mice (quantitative PCR). Conditions: ASO intra-peritoneally twice per week. It is filed as in vivo, mouse. As to the method:
as §1

The test system of data set [4] is DIO mice. In words: Fed / plasma glucose level in DIO mice. The class given is in vivo, mouse. Here is the method: as §1
Additional experiments were performed to determine the effect of the reduction of Hsp90ab1 protein level on the level of glucose in plasma. […] Thus, treatment with an Hsp90ab1 selective ASO is effective for improving glucose utilization in DIO mice.

“Also recorded” adds a separate entry of the source. d = 2'-deoxy (DNA); m = 2'-O-methyl

“mU*mC*mC*mU*mC*mC*T*C*T*T*T*C*T*C*A*C*C*T*mU*mU*mC*mU*mC*mU (antisense UCCUCCTCTTTCTCACCTUUCUCU; sugars from the 5' end m6 d12 m6, all phosphorothioate, methylation of C not given here) [ASO6, modified antisense oligonucleotide derived from the mouse HSP90AB1 gene]”: the fed insulin levels entry with DIO mice [1] was “significant reduction”. The “level of human Hsp90AB1 mRNA” value in the data set on human Hsp90AB1 mRNA is reported as “knockdown; also recorded: reduced”. Besides, in the data set with human Hsp90AB1 protein, the “level of HSP90ab1 protein” value was “effective; also recorded: most effective”. In data set [2] (DIO mice (fed HFD), 4 weeks, vs NC), the “PDK4 expression (mRNA) in skeletal muscle” value is reported as “significant decrease”. For the same substance, the “phosphorylation of PDH-E1α (S232, S293, S300) in skeletal muscle” value in data set [2] (DIO mice, Western blot) is given as “decreased”. The “skeletal muscle mRNA level of Adipose triglyceride lipase (ATGL)” value in data set [2] (DIO mice, four weeks) is “sharp increase”. The “expression of key genes that regulate glycolysis and lipid oxidation (PFKM, ALDOA, GYS1, ACCA, HSL, SCD1, ACADL, CPT1b)” value in data set [2] (DIO mice, four weeks, skeletal muscles) is given as “influences the expression”. Besides, the “glucose tolerance (IPGTT)” value with DIO mice [3] is “significant improvement; also recorded: significantly improved”. In the data set with muscle of DIO mice, the “18:0 and 18:0-OH acylcarnitines in muscle” value was “selectively decreased”; the “18:2 enriched species of cardiolipin in muscle” value is reported as “increased”; the “steric, oleic, and linoleic free fatty acids (FFA) in muscle” value is “decreased”. In the data set with Hsp90ab1 mRNA, the “Hsp90ab1 mRNA level in the gastrocnemius muscles” value is on record as “effective; also recorded: reduce”. Also, in the data set with DIO mice [4] (DIO mice, eight weeks treatment), the fed glucose level entry is “significant improvement”. For the same substance, the fed glucose levels result in the data set on DIO mice [4] (HFD fed C57B/6 mice, 4 weeks treatment) is reported as “suppressed”.
